Experimental data from the supplement of paper PMC11619387.
In brackets after ≈: the same amount, converted by molar mass.

What was measured:
[1] = system: Pseudomonas aeruginosa PAO1-Xen41; test: Emax, maximal drug effect on net growth rate (fitted lower asymptote) (per hour (slope of log luminescence)); higher = weaker maximal killing (less negative)
Description: (§1)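 Time-kill assays of bioluminescent P. aeruginosa PAO1-Xen41 (start ~5e6 CFU/mL) in 96-well plates at 37 °C, 150 rpm. Luminescence was read hourly for 20 h in cation-adjusted Mueller-Hinton broth, either non-conditioned (MH broth with or without supplements) or conditioned by one of 13 CF-associated species, then filter-sterilised and nutrient-replenished. Growth/kill rates came from log-linear regression of the exponential phase at 9-10 antibiotic concentrations, and Hill (Emax) models were fitted with drc for each replicate.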

[2] = system: Pseudomonas aeruginosa PAO1-Xen41; test: Hill coefficient of concentration-effect curve (unitless); higher = steeper concentration-effect curve
Description: as §1

[3] = system: Pseudomonas aeruginosa PAO1-Xen41; test: EC50 of growth/kill rate concentration-effect curve
Description: as §1

CC(C)(O/N=C(\C(=O)N[C@@H]1C(=O)N2C(C(=O)[O-])=C(C[n+]3ccccc3)CS[C@H]12)c1csc(N)n1)C(=O)O [ceftazidime]
Settings | EC50, [3] [mg/L] | Emax, [1] | Hill coefficient, [2]
medium (conditioned by secondary species or non-conditioned control): A. baumannii | 1.62 (≈ 2.96 µM) | -0.122 | 2.12
medium (conditioned by secondary species or non-conditioned control): A. fumigatus | 2.05 (≈ 3.75 µM) | -0.109 | 3.33
medium (conditioned by secondary species or non-conditioned control): A. xylosoxidans | 1.6 (≈ 2.92 µM) | -0.132 | 2.19
medium (conditioned by secondary species or non-conditioned control): B. cepacia | 1.15 (≈ 2.11 µM) | -0.138 | 2.53
medium (conditioned by secondary species or non-conditioned control): C. albicans | 2.02 (≈ 3.69 µM) | -0.126 | 3.16
medium (conditioned by secondary species or non-conditioned control): H. influenzae | 1.86 (≈ 3.41 µM) | -0.223 | 2.268
medium (conditioned by secondary species or non-conditioned control): M. abcessus | 1.17 (≈ 2.15 µM) | -0.0538 | 3.08
medium (conditioned by secondary species or non-conditioned control): M. avium | 1.19 (≈ 2.19 µM) | -0.0876 | 3.59
medium (conditioned by secondary species or non-conditioned control): M. catarrhalis | 1.12 (≈ 2.05 µM) | -0.166 | 3.76
medium (conditioned by secondary species or non-conditioned control): MH broth | 1.28 (≈ 2.33 µM) | -0.0573 | 3
medium (conditioned by secondary species or non-conditioned control): MH broth + ADC | 1.27 | -0.0561 | 3.55
medium (conditioned by secondary species or non-conditioned control): MH broth + LHB + NAD | 0.743 | -0.133 | 5.89
medium (conditioned by secondary species or non-conditioned control): MH broth + glucose | 1.71 | -0.0864 | 2.61
medium (conditioned by secondary species or non-conditioned control): R. mannitolilytica | 1.067 (≈ 1.95 µM) | -0.0734 | 3.02
medium (conditioned by secondary species or non-conditioned control): S. aureus | 1.12 (≈ 2.05 µM) | -0.069 | 3.04
medium (conditioned by secondary species or non-conditioned control): S. maltophilia | 0.702 (≈ 1.28 µM) | -0.139 | 3.32
medium (conditioned by secondary species or non-conditioned control): S. pneumoniae | 1.71 (≈ 3.12 µM) | -0.159 | 3.31

O=C(O)c1cn(C2CC2)c2cc(N3CCNCC3)c(F)cc2c1=O [ciprofloxacin]
Settings | EC50, [3] [mg/L] | Emax, [1] | Hill coefficient, [2]
medium (conditioned by secondary species or non-conditioned control): A. baumannii | 0.0737 (≈ 0.222 µM) | -0.126 | 4.99
medium (conditioned by secondary species or non-conditioned control): A. fumigatus | 0.08478 (≈ 0.256 µM) | -0.125 | 6.73
medium (conditioned by secondary species or non-conditioned control): A. xylosoxidans | 0.0394 (≈ 0.119 µM) | -0.0897 | 5.96
medium (conditioned by secondary species or non-conditioned control): B. cepacia | – | -0.0915 | 3.61
medium (conditioned by secondary species or non-conditioned control): C. albicans | 0.08689 (≈ 0.262 µM) | -0.0975 | 6.2
medium (conditioned by secondary species or non-conditioned control): H. influenzae | 0.0686 (≈ 0.207 µM) | -0.124 | 4.89
medium (conditioned by secondary species or non-conditioned control): M. abcessus | 0.046 (≈ 0.139 µM) | -0.124 | 4.82
medium (conditioned by secondary species or non-conditioned control): M. avium | 0.0646 (≈ 0.195 µM) | -0.0922 | 3.72
medium (conditioned by secondary species or non-conditioned control): M. catarrhalis | 0.0542 (≈ 0.164 µM) | -0.0659 | 1.71
medium (conditioned by secondary species or non-conditioned control): MH broth | 0.0844 (≈ 0.255 µM) | -0.125 | 6.8
medium (conditioned by secondary species or non-conditioned control): MH broth + ADC | 0.0577 | -0.11 | 3.02
medium (conditioned by secondary species or non-conditioned control): MH broth + LHB + NAD | 0.0388 | -0.106 | 4.99
medium (conditioned by secondary species or non-conditioned control): MH broth + glucose | 0.0437 | -0.101 | 5.64
medium (conditioned by secondary species or non-conditioned control): R. mannitolilytica | 0.0451 (≈ 0.136 µM) | -0.0966 | 4.94
medium (conditioned by secondary species or non-conditioned control): S. aureus | 0.0434 (≈ 0.131 µM) | -0.0957 | 5.13
medium (conditioned by secondary species or non-conditioned control): S. maltophilia | 0.0279 (≈ 0.0843 µM) | -0.0883 | 3.59
medium (conditioned by secondary species or non-conditioned control): S. pneumoniae | 0.0738 (≈ 0.223 µM) | -0.117 | 4.27

CO[C@H]1/C=C/O[C@@]2(C)Oc3c(C)c(O)c4c(O)c(c(/C=N/N5CCN(C)CC5)c(O)c4c3C2=O)NC(=O)/C(C)=C\C=C\[C@H](C)[C@H](O)[C@@H](C)[C@@H](O)[C@@H](C)[C@H](OC(C)=O)[C@@H]1C [rifampicin]
Settings | EC50, [3] [mg/L] | Emax, [1] | Hill coefficient, [2]
medium (conditioned by secondary species or non-conditioned control): A. baumannii | 58.4 (≈ 71 µM) | -0.428 | 2.64
medium (conditioned by secondary species or non-conditioned control): A. fumigatus | 16.6 (≈ 20.2 µM) | -0.427 | 1.865
medium (conditioned by secondary species or non-conditioned control): A. xylosoxidans | 60.8 (≈ 73.9 µM) | -0.447 | 3.63
medium (conditioned by secondary species or non-conditioned control): B. cepacia | 53.9 (≈ 65.4 µM) | -0.4437 | 4.03
medium (conditioned by secondary species or non-conditioned control): C. albicans | 26.5 (≈ 32.2 µM) | -0.543 | 2.68
medium (conditioned by secondary species or non-conditioned control): H. influenzae | 18.7 (≈ 22.7 µM) | -0.165 | 5.03
medium (conditioned by secondary species or non-conditioned control): M. abcessus | 43.2 (≈ 52.5 µM) | -0.468 | 2.15
medium (conditioned by secondary species or non-conditioned control): M. avium | 72 (≈ 87.5 µM) | -1.04 | 0.999
medium (conditioned by secondary species or non-conditioned control): M. catarrhalis | 58.7 (≈ 71.4 µM) | -0.151 | 2.74
medium (conditioned by secondary species or non-conditioned control): MH broth | 31.7 (≈ 38.5 µM) | -0.425 | 2.61
medium (conditioned by secondary species or non-conditioned control): MH broth + ADC | 83.3 | -1.1 | 0.89
medium (conditioned by secondary species or non-conditioned control): MH broth + LHB + NAD | 25.2 | -0.141 | 3.8
medium (conditioned by secondary species or non-conditioned control): MH broth + glucose | 26.7 | -0.552 | 2.46
medium (conditioned by secondary species or non-conditioned control): R. mannitolilytica | 40.4 (≈ 49 µM) | -0.4494 | 5.28
medium (conditioned by secondary species or non-conditioned control): S. aureus | 43.6 (≈ 53 µM) | -0.461 | 2.1
medium (conditioned by secondary species or non-conditioned control): S. maltophilia | 51.8 (≈ 62.9 µM) | -0.437 | 3.3
medium (conditioned by secondary species or non-conditioned control): S. pneumoniae | 20.8 (≈ 25.3 µM) | -0.142 | 4.69
